In paper PMC6225165, “Design and Synthesis of Novel Dehydroepiandrosterone Analogues as Potent Antiproliferative Agents” (Molecules : A Journal of Synthetic Chemistry and Natural …, 2018):

Experiments:
[1] = system: A549; assay: MTT antiproliferative assay, A549; format: cell-based, human; settings: 48 h, MTT; for inhibition at 100 µM: read-out: % Growth Inhibition at 100 μM A549
Protocol: (§1) The antiproliferative activity of the title compounds against the panel of six different human cancer cell lines, viz. lung (A549), cervix (HeLa), liver (HepG-2), liver (BEL7402), colorectal (HCT116), and breast (MCF-7) cell lines, was evaluated using a standard MTT-based colorimetric assay. All cell lines were obtained from the Key Laboratory of Natural Resources and Functional Molecules of the Changbai Mountain (Yanbian University) and maintained in Dulbecco’s modified Eagle’s medium (DMEM) and RPMI Media 1640 (RPMI1640), supplemented with 10% foetal bovine serum (FBS) at 37 °C in a humidified atmosphere containing 5% CO2.
(§2) Cells were plated in 96-well plates at appropriate densities to ensure exponential growth throughout the experimental period (9 × 10^3 cells per well), and then allowed to adhere for 24 h. Cells were then treated for 48 h with each compound. After 48 h of incubation, 10 μL of MTT solution were added to each well to a final concentration of 2 mg·mL^−1. Plates were then incubated for a further 4 h. After incubation, the MTT solution was removed and 150 μL of DMSO were added to each well for coloration. The plates were shaken vigorously for 10 min at room temperature to ensure complete solubilisation. The optometric density (OD) was read on a microplate reader (EL × 800, BioTek, Highland Park, Winooski, VT, USA) at 492 nm, and the data were subsequently analysed. The percentage of cell growth inhibition was calculated from the following equation:Inhibitory rate (%) = [1 − (ODtreated − ODblank)/(ODcontrol − ODblank)] × 100.
(§3) To obtain the antiproliferative activity of compounds 2a–2w, the compounds were selected in the same way with four serial concentrations (1, 10, 50 and 100 μM) of those compounds. The optometric density (OD) reading was then used to calculate the IC50.

[2] = system: Hela; assay: MTT antiproliferative assay, Hela; format: cell-based, human; settings: 48 h, MTT; for inhibition at 100 µM: read-out: % Growth Inhibition at 100 μM Hela
Protocol: as §1, §2, §3

[3] = system: HepG-2; assay: MTT antiproliferative assay, HepG-2; format: cell-based, human; settings: 48 h, MTT; for inhibition at 100 µM: read-out: % Growth Inhibition at 100 μM HepG-2
Protocol: as §1, §2, §3

[4] = system: BEL7402; assay: MTT antiproliferative assay, BEL7402; format: cell-based, human; settings: 48 h, MTT; for inhibition at 100 µM: read-out: % Growth Inhibition at 100 μM BEL7402
Protocol: as §1, §2, §3

[5] = system: HCT116; assay: MTT antiproliferative assay, HCT116; format: cell-based, human; settings: 48 h, MTT; for inhibition at 100 µM: read-out: % Growth Inhibition at 100 μM HCT116
Protocol: as §1, §2, §3

[6] = system: MCF-7; assay: MTT antiproliferative assay, MCF-7; format: cell-based, human; settings: 48 h, MTT; for inhibition at 100 µM: read-out: % Growth Inhibition at 100 μM MCF-7
Protocol: as §1, §2, §3

[7] = system: human normal liver (L02) cells; assay: MTT assay on normal cell line L02; format: cell-based; settings: 48 h, MTT; for % Growth Inhibition at 100 μM L02 / inhibition at 100 µM: normal cells; for IC50: normal cell line; for inhibition at 100 µM: read-out: % Growth Inhibition at 100 μM L02

SMILES | % Growth Inhibition at 100 μM A549 [1] | % Growth Inhibition at 100 μM Hela [2] | % Growth Inhibition at 100 μM HepG-2 [3] | % Growth Inhibition at 100 μM BEL7402 [4] | % Growth Inhibition at 100 μM HCT116 [5] | % Growth Inhibition at 100 μM MCF-7 [6] | % Growth Inhibition at 100 μM L02 [7] | further results
CC12CCC3C(CC=C4CC(O)CCC43C)C1C/C(=C\c1cn(-c3cccc(Br)c3)nn1)C2=O (stereo not shown) [Compound 2j, (E)-16-((1-(3-bromophenyl)-1H-1,2,3-triazol-4-yl)methylene)-3-hydroxy-10,13-dimethyl-1,3,4,7,8,9,10,11,12,13,15,16-dodecahydro-2H-cyclopenta[a]phenan-thren-17(14H)-one] | NA (NA: antiproliferative activity <5%) | 20.5% | 10.8% | 37.6% | 42.0% | 42.1% | 43.8% | –
CC12CCC3C(CC=C4CC(O)CCC43C)C1C/C(=C\c1cn(-c3ccc(Br)cc3)nn1)C2=O (stereo not shown) [Compound 2k, (E)-16-((1-(4-bromophenyl)-1H-1,2,3-triazol-4-yl)methylene)-3-hydroxy-10,13-di-methyl-1,3,4,7,8,9,10,11,12,13,15,16-dodecahydro-2H-cyclopenta[a]phenan-thren-17(14H)-one] | 47.8% | 30.7% | 66.4% | NA (NA: antiproliferative activity <5%) | NA (NA: antiproliferative activity <5%) | 45.5% | 11.1% | IC50 [1]: > 100 µM; IC50 [2]: > 100 µM; IC50 [3]: 37.1 µM; IC50 [4]: > 100 µM; IC50 [5]: > 100 µM; IC50 [6]: > 100 µM; IC50 [7]: > 100 µM
CC12CCC3C(CC=C4CC(O)CCC43C)C1C/C(=C\c1cn(-c3ccccc3I)nn1)C2=O (stereo not shown) [Compound 2l, (E)-3-hydroxy-16-((1-(2-iodophenyl)-1H-1,2,3-triazol-4-yl)methylene)-10,13-dim-ethyl-1,3,4,7,8,9,10,11,12,13,15,16-dodecahydro-2H-cyclopenta[a]phenanthren-17(14H)-one] | NA (NA: antiproliferative activity <5%) | NA (NA: antiproliferative activity <5%) | NA (NA: antiproliferative activity <5%) | NA (NA: antiproliferative activity <5%) | NA (NA: antiproliferative activity <5%) | NA (NA: antiproliferative activity <5%) | NA (NA: antiproliferative activity <5%) | –
CC12CCC3C(CC=C4CC(O)CCC43C)C1C/C(=C\c1cn(-c3cccc(I)c3)nn1)C2=O (stereo not shown) [Compound 2m, (E)-3-hydroxy-16-((1-(3-iodophenyl)-1H-1,2,3-triazol-4-yl)methylene)-10,13-dim-ethyl-1,3,4,7,8,9,10,11,12,13,15,16-dodecahydro-2H-cyclopenta[a]phenanthren-17(14H)-one] | NA (NA: antiproliferative activity <5%) | NA (NA: antiproliferative activity <5%) | NA (NA: antiproliferative activity <5%) | 14.1% | 7.6% | NA (NA: antiproliferative activity <5%) | NA (NA: antiproliferative activity <5%) | –
Cc1cccc(-n2cc(/C=C3\CC4C5CC=C6CC(O)CCC6(C)C5CCC4(C)C3=O)nn2)c1 (stereo not shown) [Compound 2o, (E)-3-hydroxy-10,13-dimethyl-16-((1-m-tolyl-1H-1,2,3-triazol-4-yl)methylene)-1,3,4,7,8,9,10,11,12,13,15,16-dodecahydro-2H-cyclopenta[a]phenanthren-17(14H)-one] | – | – | – | – | – | – | – | inhibition at 100 µM ([1]; Homo sapiens, A549): < 5%; inhibition at 100 µM ([2]; Homo sapiens): 12.7%; inhibition at 100 µM ([3]; Homo sapiens, HepG2): 12.8%; inhibition at 100 µM ([4]; Homo sapiens, Bel-7402): 30.5%; inhibition at 100 µM ([5]; Homo sapiens, HCT-116): 40.9%; inhibition at 100 µM ([6]; Homo sapiens, MCF7): 11.2%; inhibition at 100 µM ([7]; Homo sapiens, L02): 40.1%
Cc1ccc(-n2cc(/C=C3\CC4C5CC=C6CC(O)CCC6(C)C5CCC4(C)C3=O)nn2)cc1 (stereo not shown) [Compound 2p, (E)-3-hydroxy-10,13-dimethyl-16-((1-p-tolyl-1H-1,2,3-triazol-4-yl)methylene)-1,3,4,7,8,9,10,11,12,13,15,16-dodecahydro-2H-cyclopenta[a]phenanthren-17(14H)-one] | – | – | – | – | – | – | – | inhibition at 100 µM ([1]; Homo sapiens, A549): 63.1%; IC50 ([1]; Homo sapiens, A549): 56.7 µM; IC50 ([2]; Homo sapiens, HeLa): 62.4 µM; inhibition at 100 µM ([2]; Homo sapiens): 64.6%; inhibition at 100 µM ([3]; Homo sapiens, HepG2): 76%; IC50 ([3]; Homo sapiens, HepG2): 18.9 µM; inhibition at 100 µM ([4]; Homo sapiens, Bel-7402): 23.7%; IC50 ([4]; Homo sapiens, Bel-7402): > 100 µM; inhibition at 100 µM ([5]; Homo sapiens, HCT-116): 76.5%; IC50 ([5]; Homo sapiens, HCT-116): 44.1 µM; inhibition at 100 µM ([6]; Homo sapiens, MCF7): 21.7%; IC50 ([6]; Homo sapiens, MCF7): > 100 µM; inhibition at 100 µM ([7]; Homo sapiens, L02): 67.1%; IC50 ([7]; Homo sapiens, L02): 62.2 µM
COc1ccccc1-n1cc(/C=C2\CC3C4CC=C5CC(O)CCC5(C)C4CCC3(C)C2=O)nn1 (stereo not shown) [Compound 2q, (E)-3-hydroxy-16-((1-(2-methoxyphenyl)-1H-1,2,3-triazol-4-yl)methylene)-10,13-dimethyl-1,3,4,7,8,9,10,11,12,13,15,16-dodecahydro-2H-cyclopenta[a]phenan-thren-17(14H)-one] | 7.6% | NA (NA: antiproliferative activity <5%) | NA (NA: antiproliferative activity <5%) | 10.0% | 14.3% | 34.6% | NA (NA: antiproliferative activity <5%) | –
COc1cccc(-n2cc(/C=C3\CC4C5CC=C6CC(O)CCC6(C)C5CCC4(C)C3=O)nn2)c1 (stereo not shown) [Compound 2r, (E)-3-hydroxy-16-((1-(3-methoxyphenyl)-1H-1,2,3-triazol-4-yl)methylene)-10,13-dimethyl-1,3,4,7,8,9,10,11,12,13,15,16-dodecahydro-2H-cyclopenta[a]phenan-thren-17(14H)-one] | NA (NA: antiproliferative activity <5%) | NA (NA: antiproliferative activity <5%) | NA (NA: antiproliferative activity <5%) | NA (NA: antiproliferative activity <5%) | NA (NA: antiproliferative activity <5%) | NA (NA: antiproliferative activity <5%) | 16.9% | –
COc1ccc(-n2cc(/C=C3\CC4C5CC=C6CC(O)CCC6(C)C5CCC4(C)C3=O)nn2)cc1 (stereo not shown) [Compound 2s, (E)-3-hydroxy-16-((1-(4-methoxyphenyl)-1H-1,2,3-triazol-4-yl)methylene)-10,13-dimethyl-1,3,4,7,8,9,10,11,12,13,15,16-dodecahydro-2H-cyclopenta[a]phenan-thren-17(14H)-one] | 44.0% | 14.9% | 42.3% | 38.4% | 70.7% | 58.1% | 58.5% | IC50 [1]: > 100 µM; IC50 [2]: > 100 µM; IC50 [3]: > 100 µM; IC50 [4]: > 100 µM; IC50 [5]: 56.9 µM; IC50 [6]: 69.4 µM; IC50 [7]: 81.1 µM
COc1ccc(-n2cc(/C=C3\CC4C5CC=C6CC(O)CCC6(C)C5CCC4(C)C3=O)nn2)cc1OC (stereo not shown) [Compound 2t, (E)-16-((1-(3,4-dimethoxyphenyl)-1H-1,2,3-triazol-4-yl)methylene)-3-hydroxy-10,13-dimethyl-1,3,4,7,8,9,10,11,12,13,15,16-dodecahydro-2H-cyclopenta[a]phenan-thren-17(14H)-one] | NA (NA: antiproliferative activity <5%) | NA (NA: antiproliferative activity <5%) | NA (NA: antiproliferative activity <5%) | NA (NA: antiproliferative activity <5%) | NA (NA: antiproliferative activity <5%) | NA (NA: antiproliferative activity <5%) | 9.4% | –
